Reference: paper PMC3833878, “In Silico Molecular Comparisons of C. elegans and Mammalian Pharmacology Identify Distinct Targets That Regulate Feeding” (PLoS Biology, 2013)

Key:
[1] = tested on: wild-type C. elegans; assay: Pharyngeal pumping assay; type: in vivo; settings: for EC50: Caenorhabditis elegans, read-out: EC50 of the dose-dependent increase in the pharyngeal pumping rate
Procedure: (§1) Compounds at 1,000× stock concentrations (0.1–10 mM) in DMSO or an equal volume of DMSO were diluted in a suspension of E. coli OP-50 (100 µl of a 3× concentrated overnight culture in LB broth) and absorbed as a single drop onto 3.5 cm plates containing 2.5 ml of NGM agar forming a well-defined lawn of bacteria. For developmental exposures, 20–30 synchronized first larval stage C. elegans derived from alkaline hypochlorite treatment of gravid adults were applied to the preseeded plates and cultured until assay at mid-L4 stage (2 d, 20°C) or as day 1 gravid adults (3 d, 20°C). For naïve adult exposures, synchronized first larval stage animals were cultured on NGM-agar plates seeded with E. coli OP-50 for 3 d at 20°C, then transferred to assay plates, and pumping was assayed 1 to 16 h later. Comparisons between vehicle-treated and compound-treated animals were always performed between animals at the same developmental stage and same exposure time. Pharyngeal pumping was counted by live observation at 115–200× magnification using a stereo microscope and recorded at 10 s intervals using a manually controlled digital cell counter. Alternatively, C. elegans pumping was recorded for longer intervals (30–60 s) using bright-field time-lapse microscopy at 120× magnification with a 20 images per second acquisition rate. The resulting movies were analyzed manually at a playback rate of 10 images per second.
(§2) Significance was determined by one-way ANOVA applying a Dunnett's posttest when comparing multiple treatments to a single control and a Bonferroni posttest when comparing the more than two treatments against one another. For pairwise nonrepeated measured comparisons, a student's t test was used. To express data as a percentage of control, the pumping rates of compound-treated animals were divided by the mean pumping rate of the DMSO-treated wild-type animals measured in the same experiment, unless indicated otherwise. Error bars on the control samples indicate the variation around that mean, which is utilized in all statistical calculations.

[2] = target: Flt-3 receptor; set-up: method as in PMID 20153646; settings: cited from earlier work
[3] = target: tachykinin receptor-2 (Homo sapiens, UniProt P21452); assay: Cell-based Ca flux assay (Multispan)
Procedure: (§3) Tachykinin, ghrelin, and calcium-sensing receptor activity were measured using a cell-based Ca flux assay by Multispan, Inc. (Hayward, California). Cholescystokinin A and B receptors were assayed for effects on cAMP production, and nicotinic acid receptor activity was measured in a cell-based assay of forskolin-stimulated cAMP production by Multispan, Inc. […], PP2A phosphatase activity assays were performed by CEREP (Celle l'Evescault, France) using PP2A from human erythrocytes. Phospholipase C from Bacillus cereus was assayed by CEREP, Inc. using glycero-phosphatidyl ethanolamine as a substrate, monitoring diacyl glycerol production. Radioligand binding assays for PPAR-α, γ, δ and the androgen receptor were performed by CEREP, Inc. CARNA Biosciences (Kobe, Japan) performed in vitro kinase activity assays using recombinant catalytic domains and measured phosphorylation of an Src-derived peptide for Flt-3 and phosphatidyl inositol for PI3KCA. Radioligand binding assays for the oxytocin receptor, D4 dopamine receptor, cannabinoid CB2 receptor, and angiotensin type I and II receptors were performed as described previously, as were cell-based activity assays for mGluR 1a, 2, 4, 5, 6, and 8 [60]–[62].

[4] = target: tachykinin receptor-3 (Homo sapiens, UniProt P29371); assay: Cell-based Ca flux assay (Multispan)
Procedure: as §3

[5] = target: tachykinin receptor-1 (Homo sapiens, UniProt P25103); assay: Cell-based Ca flux assay, cells stimulated by neurokinin-1 peptide (Multispan); settings: marked with footnote d in Figure 2
Procedure: as §3
Supplementary file pbio.1001712.s001.tif: Figure S1 Dose-response measurements that validate SEA predictions for GPCRs. […]

[6] = tested on: tkr-1(RNAi) C. elegans; assay: Pharyngeal pumping assay, compound on RNAi-treated animals; type: in vivo
Procedure: Synchronized first larval stage C. elegans were cultured for 3 d at 20°C on a lawn of HT115 E. coli induced with IPTG to express double-stranded RNAi as described.
Compounds at 1,000× stock concentrations (0.1–10 mM) in DMSO or an equal volume of DMSO were diluted in a suspension of E. coli OP-50 (100 µl of a 3× concentrated overnight culture in LB broth) and absorbed as a single drop onto 3.5 cm plates containing 2.5 ml of NGM agar forming a well-defined lawn of bacteria. […] Pharyngeal pumping was counted by live observation at 115–200× magnification using a stereo microscope and recorded at 10 s intervals using a manually controlled digital cell counter. Alternatively, C. elegans pumping was recorded for longer intervals (30–60 s) using bright-field time-lapse microscopy at 120× magnification with a 20 images per second acquisition rate. The resulting movies were analyzed manually at a playback rate of 10 images per second.
Significance was determined by one-way ANOVA applying a Dunnett's posttest when comparing multiple treatments to a single control and a Bonferroni posttest when comparing the more than two treatments against one another. For pairwise nonrepeated measured comparisons, a student's t test was used. […]

[7] = tested on: C. elegans; set-up: method as in earlier work; settings: earlier phenotypic screen ref 11; cited from earlier work
[8] = tested on: gnrr-1(ok238) mutant C. elegans; assay: Pharyngeal pumping assay, compound on high-feeding mutant; type: in vivo; settings: percentage of the mutant's pumping rate on DMSO; 10 µM B16, D20, K9, F15, H6; 200 nM L-371257, SB 222200; 2 µM MMPIP, 5-flurox
Procedure: as §1, §2
(§4) The pumping rates are expressed as a percentage of the mutant’s pumping rate on DMSO, the vehicle control. p-values were calculated relative to DMSO treatment of each mutant by one-way ANOVA using Dunnett’s multiple comparison test.

[9] = tested on: gnrr-3(tm4152) mutant C. elegans; assay: as above; type: in vivo; settings: percentage of the mutant's pumping rate on DMSO; 10 µM B16, D20, K9, F15, H6; 200 nM L-371257, SB 222200; 2 µM MMPIP, 5-flurox
Procedure: as §1, §2, §4

[10] = tested on: mgl-2(tm355) mutant C. elegans; assay: as above; type: in vivo; settings: percentage of the mutant's pumping rate on DMSO; 10 µM B16, D20, K9, F15, H6; 200 nM L-371257, SB 222200; 2 µM MMPIP, 5-flurox
Procedure: as §1, §2, §4

[11] = tested on: ver-2(ok897) mutant C. elegans; assay: as above; type: in vivo; settings: percentage of the mutant's pumping rate on DMSO; 10 µM B16, D20, K9, F15, H6; 200 nM L-371257, SB 222200; 2 µM MMPIP, 5-flurox
Procedure: as §1, §2, §4

[12] = tested on: ver-3(ok891) mutant C. elegans; assay: as above; type: in vivo; settings: percentage of the mutant's pumping rate on DMSO; 10 µM B16, D20, K9, F15, H6; 200 nM L-371257, SB 222200; 2 µM MMPIP, 5-flurox
Procedure: as §1, §2, §4

[13] = target: Oxtr; set-up: method as in PMID 7473590; settings: cited from earlier work

Chain of tachykinin receptor-2 (P21452 whole entry): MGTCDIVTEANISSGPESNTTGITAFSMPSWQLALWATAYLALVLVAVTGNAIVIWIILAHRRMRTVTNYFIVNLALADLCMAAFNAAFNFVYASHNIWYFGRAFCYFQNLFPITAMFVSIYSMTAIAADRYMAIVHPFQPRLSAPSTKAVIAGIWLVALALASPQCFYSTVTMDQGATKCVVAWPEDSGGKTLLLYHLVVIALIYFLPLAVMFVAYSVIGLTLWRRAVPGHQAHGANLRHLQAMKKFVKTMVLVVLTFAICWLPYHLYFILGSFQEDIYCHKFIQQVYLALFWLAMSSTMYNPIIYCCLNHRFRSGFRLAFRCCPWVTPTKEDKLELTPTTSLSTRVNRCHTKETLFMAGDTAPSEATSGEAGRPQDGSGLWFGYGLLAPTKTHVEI
Chain of tachykinin receptor-1 (P25103 whole entry): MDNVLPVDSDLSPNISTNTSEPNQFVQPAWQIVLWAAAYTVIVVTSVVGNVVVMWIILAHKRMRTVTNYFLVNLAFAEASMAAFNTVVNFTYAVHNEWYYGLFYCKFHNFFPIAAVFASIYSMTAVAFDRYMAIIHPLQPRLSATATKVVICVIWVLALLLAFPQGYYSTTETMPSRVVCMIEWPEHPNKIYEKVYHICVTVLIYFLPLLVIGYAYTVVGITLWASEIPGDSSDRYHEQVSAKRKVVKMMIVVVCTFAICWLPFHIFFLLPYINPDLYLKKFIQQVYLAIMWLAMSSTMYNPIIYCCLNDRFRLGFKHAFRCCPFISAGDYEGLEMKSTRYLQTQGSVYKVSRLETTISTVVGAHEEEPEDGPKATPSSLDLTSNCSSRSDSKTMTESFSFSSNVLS
Chain of tachykinin receptor-3 (P29371 whole entry): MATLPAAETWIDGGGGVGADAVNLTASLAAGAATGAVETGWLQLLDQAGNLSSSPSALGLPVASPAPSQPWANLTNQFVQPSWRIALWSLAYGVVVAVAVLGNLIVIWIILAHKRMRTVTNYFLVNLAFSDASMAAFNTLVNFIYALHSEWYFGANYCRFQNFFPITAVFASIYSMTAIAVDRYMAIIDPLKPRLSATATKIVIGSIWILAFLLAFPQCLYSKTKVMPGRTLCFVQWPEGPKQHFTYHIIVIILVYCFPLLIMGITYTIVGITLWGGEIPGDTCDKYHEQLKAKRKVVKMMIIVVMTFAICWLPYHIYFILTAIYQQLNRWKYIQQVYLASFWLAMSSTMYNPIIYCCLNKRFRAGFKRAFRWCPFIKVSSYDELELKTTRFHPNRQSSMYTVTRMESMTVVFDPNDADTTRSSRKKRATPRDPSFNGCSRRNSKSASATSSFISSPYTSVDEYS

Compound	EC50 [1] [nM]	IC50 [2] [nM]	Ki [3] [nM]	Ki [4] [nM]	Ki [5] [nM]	increase in pharyngeal pumping ([1]; 10 µM, cultured 3 d from L1, long-term video (60 s) and short-term manual (10 s) measurements)	exposure time after which the feeding elevating effect was notable ([1]; 10 µM, naïve day 1 gravid adults) [h]	effect on the pharyngeal pumping rate ([1]; wild-type, 10 µM versus 0.1% DMSO)	Pharmacological relationship ([6]; to C. elegans tkr-1 (C38C10.1), homolog of human Tkr-1)	Nile Red staining [7]	pharyngeal pumping rate, mean [8] [%]	pharyngeal pumping rate, mean [9] [%]	pharyngeal pumping rate, mean [10] [%]	pharyngeal pumping rate, mean [11] [%]	pharyngeal pumping rate, mean [12] [%]	pharyngeal pumping rate, mean ([6]; percentage of the pumping rate of tkr-1(RNAi) animals on DMSO, 10 µM B16, D20, K9, F15, H6, 200 nM L-371257, SB 222200, 2 µM MMPIP, 5-flurox) [%]	Ki [13] [nM]
O=C1Nc2ccc(F)cc2/C1=C1/Nc2ccccc2C1=NO [5-flurox, 5′-fluoroindirubinoxime, reference compound]	40	15															
COc1ccc(OC)c(-c2cc(NC(=O)c3ccccc3C(N)=O)c3ccccc3n2)c1 [H6]			> 10000	> 10000	1900	7%–12%	~16	increased	antagonist	increased							
COc1cc(OC2CCN(C(C)=O)CC2)ccc1C(=O)N1CCC(N2C(=O)OCc3ccccc32)CC1 [L-371257, 1-(1-[4-[(N-acetyl-4-piperidinyl)oxy]-2-methoxybenzoyl]piperidin-4-yl)-4H-3,1-benzoxazin-2(1H)-one, reference compound]	10										99.2	108.5	105.0	100.8	94.8	109.9	4.6
